Measured values reported in ChEMBL document CHEMBL1201862, “PubChem BioAssay data set” (2004).
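Cultured in 96-well plates, cells were exposed to test compound for 48 hours across five concentrations. Here, GI50 denotes the concentration required for 50% inhibition of growth.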 The source made the active and inactive calls. No stated cut-off is given here; in the data, active = GI50 up to about 1.1 µM and inactive = higher.

Columns and labels:
Assay in all cases: inhibition of tumour cell growth, NCI panel, 48 h
[1] = test system: HL-60
[2] = test system: UO-31
[3] = test system: OVCAR-8
[4] = test system: HOP-62
[5] = test system: SN12C
[6] = test system: SF-539
[7] = test system: CCRF-CEM
[8] = test system: SK-OV-3
[9] = test system: IGROV-1
[10] = test system: KM-20L2
[11] = test system: 786-0
[12] = test system: NCI-H522
[13] = test system: UACC-257
[14] = test system: NCI-H23
[15] = test system: TK-10
[16] = test system: SNB-75
[17] = test system: SK-MEL-28
[18] = test system: PC-3
[19] = test system: DU-145
[20] = test system: Hs-578T

Measured: GI50

CCCCN(CCCC)/C(=N\C#N)NCc1ccccc1
inactive: [1] 10.5 µM | [2] 11.2 µM | [3] 26.1 µM | [4] 28.4 µM | [5] 18.8 µM | [6] 23.8 µM | [7] 12.1 µM | [8] 20.7 µM | [9] 24.8 µM | [10] 22 µM | [11] 19 µM | [12] 3.95 µM | [13] 27.4 µM | [14] 27.1 µM | [15] 25.1 µM | [16] 28.1 µM

CC(=O)Nc1ccc(C(=O)NN2C(=O)C(Cl)C2c2ccc(O)cc2)cc1 (stereo unspecified)
inactive: [1] > 100 µM | [2] > 100 µM | [3] 77.3 µM | [4] 57.9 µM | [5] > 100 µM | [6] > 100 µM | [7] > 100 µM | [8] > 100 µM | [9] > 100 µM | [17] > 100 µM | [10] > 100 µM | [11] 72.4 µM | [12] > 100 µM | [13] > 100 µM | [15] > 100 µM | [16] > 100 µM

Fc1ccc(C(OCCN2CCC3CCC(C2)N3Cc2cc3ccccc3[nH]2)c2ccc(F)cc2)cc1 (stereo unspecified)
inactive: [1] 1.58 µM | [2] 2 µM | [3] 1.73 µM | [4] 2.05 µM | [5] 1.68 µM | [6] 1.59 µM | [7] 1.71 µM | [8] 2.33 µM | [18] 1.7 µM | [9] 1.38 µM | [17] 1.61 µM | [11] 1.65 µM | [12] 1.47 µM | [13] 1.95 µM | [14] 1.58 µM | [15] 2.43 µM | [16] 1.89 µM | [19] 1.85 µM | [20] 1.88 µM

CCOC(=O)CNC1C(NC(C)=O)C(OC)OC2COC(c3ccccc3)OC21 (stereo unspecified)
inactive: [1] > 100 µM | [2] > 100 µM | [3] > 100 µM | [5] > 100 µM | [6] > 100 µM | [7] > 100 µM | [8] > 100 µM | [9] > 100 µM | [17] > 100 µM | [10] > 100 µM | [11] > 100 µM | [12] > 100 µM | [13] > 100 µM | [14] > 100 µM | [15] > 100 µM | [16] > 100 µM

OCCCCOC(c1ccccc1)(c1ccccc1)c1ccccc1
inactive: [1] > 100 µM | [2] > 100 µM | [3] > 100 µM | [4] > 100 µM | [5] > 100 µM | [6] > 100 µM | [7] > 100 µM | [8] > 100 µM | [9] > 100 µM | [17] > 100 µM | [10] > 100 µM | [11] > 100 µM | [12] > 100 µM | [13] > 100 µM | [14] > 100 µM | [15] > 100 µM | [16] 67.5 µM

O=C(CC1(O)C(=O)Nc2c(Cl)cc(Cl)cc21)c1ccccc1 (stereo unspecified)
inactive: [1] 37 µM | [2] 52.1 µM | [3] 71.8 µM | [5] > 100 µM | [6] > 100 µM | [8] > 100 µM | [9] > 100 µM | [17] > 100 µM | [10] > 100 µM | [11] > 100 µM | [12] 55.1 µM | [13] 57 µM | [14] 77.6 µM | [15] > 100 µM | [16] 38.6 µM

CC(=O)NC(CCCCN)C(=O)NCc1ccccc1 (stereo unspecified)
inactive: [2] > 100 µM | [3] > 100 µM | [4] > 100 µM | [5] > 100 µM | [6] > 100 µM | [7] > 100 µM | [8] > 100 µM | [9] > 100 µM | [17] > 100 µM | [10] > 100 µM | [11] > 100 µM | [12] > 100 µM | [13] > 100 µM | [14] > 100 µM | [15] > 100 µM | [16] 88.1 µM

CC(=O)Nc1ccccc1-c1cnc2ccccc2n1
inactive: [1] > 100 µM | [3] > 100 µM | [4] > 100 µM | [5] > 100 µM | [6] > 100 µM | [7] > 100 µM | [8] > 100 µM | [9] > 100 µM | [17] > 100 µM | [10] > 100 µM | [11] > 100 µM | [12] > 100 µM | [13] > 100 µM | [14] > 100 µM | [15] > 100 µM | [16] > 100 µM
